Test results from patent US9695155B2, “Herbicidal substituted pyrimidinyloxy benzene compounds” (E. I. DU PONT DE NEMOURS AND COMPANY, priority 2013, dated 2017).

Legend:
giant foxtail [1] = assay: Test A preemergence; format: in vivo, Setaria faberii; conditions: for Foxtail, Giant plant response rating: 500 g ai/ha; for Foxtail, Giant plant response rating / Plant response rating, Foxtail, Giant: 0 to 100 scale where 0 is no effect and 100 is complete control
Summary of the method: (§1)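 Visual injury scored 0–100 (100 = complete control) against untreated controls about 10 days after treatment in a greenhouse. Test chemicals, formulated with surfactant in non-phytotoxic solvent, were sprayed on soil preemergence or on 2-10 cm, one- to two-leaf plants postemergence.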

wheat [2] = assay: Test A preemergence; format: in vivo, Triticum aestivum; conditions: for Wheat plant response rating (0 to 100 scale): 125 g ai/ha; for Wheat plant response rating: 500 g ai/ha, 0 to 100 scale where 0 is no effect and 100 is complete control
Summary of the method: as §1

rice = assay: Test B flooded paddy test; format: in vivo, Oryza sativa; conditions: Flood, 250 g ai/ha; 0 to 100 scale where 0 is no effect and 100 is complete control
Summary of the method: (§2)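 Seedlings are raised to two leaves, flooded to a depth of 3 cm and dosed by adding the compound to the floodwater. Water level is kept constant, and plants are scored visually versus controls 13–15 days later (0 = no effect, 100 = complete control).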

morningglory [3] = assay: Test A preemergence; format: in vivo, Ipomoea spp.; conditions: for Morningglory plant response rating (0 to 100 scale): 125 g ai/ha; for Morningglory plant response rating: 500 g ai/ha, 0 to 100 scale where 0 is no effect and 100 is complete control
Summary of the method: as §1

pigweed [4] = assay: Test A preemergence; format: in vivo, Amaranthus retroflexus; conditions: for Pigweed plant response rating (0 to 100 scale): 125 g ai/ha; for Pigweed plant response rating: 500 g ai/ha, 0 to 100 scale where 0 is no effect and 100 is complete control
Summary of the method: as §1

barnyardgrass [5] = assay: Test B flooded paddy test; format: in vivo, Echinochloa crus-galli; conditions: Flood, 250 g ai/ha; 0 to 100 scale where 0 is no effect and 100 is complete control
Summary of the method: as §2

pigweed [6] = assay: Test A postemergence; format: in vivo, Amaranthus retroflexus
Summary of the method: as §1

Heteranthera limosa = assay: Test B flooded paddy test; format: in vivo; conditions: Flood, 250 g ai/ha; 0 to 100 scale where 0 is no effect and 100 is complete control
Summary of the method: as §2

velvetleaf [7] = assay: Test A postemergence; format: in vivo, Abutilon theophrasti
Summary of the method: as §1

corn [8] = assay: Test A postemergence; format: in vivo, Zea mays
Summary of the method: as §1

barnyardgrass [9] = assay: Test A postemergence; format: in vivo, Echinochloa crus-galli
Summary of the method: as §1

wheat [10] = assay: Test A postemergence; format: in vivo, Triticum aestivum
Summary of the method: as §1

corn [11] = assay: Test A preemergence; format: in vivo, Zea mays; conditions: for Corn plant response rating: 500 g ai/ha; for Corn plant response rating / Plant response rating, Corn: 0 to 100 scale where 0 is no effect and 100 is complete control
Summary of the method: as §1

velvetleaf [12] = assay: Test A preemergence; format: in vivo, Abutilon theophrasti; conditions: for Velvetleaf plant response rating (0 to 100 scale): 125 g ai/ha; for Velvetleaf plant response rating: 500 g ai/ha, 0 to 100 scale where 0 is no effect and 100 is complete control
Summary of the method: as §1

large (Lg) crabgrass [13] = assay: Test A postemergence; format: in vivo, Digitaria sanguinalis
Summary of the method: as §1

morningglory [14] = assay: Test A postemergence; format: in vivo, Ipomoea spp.
Summary of the method: as §1

sedge, umbrella = assay: Test B flooded paddy test; format: in vivo, Cyperus difformis; conditions: Flood, 250 g ai/ha; 0 to 100 scale where 0 is no effect and 100 is complete control
Summary of the method: as §2

large (Lg) crabgrass [15] = assay: Test A preemergence; format: in vivo, Digitaria sanguinalis; conditions: for Crabgrass, Large plant response rating: 500 g ai/ha; for Crabgrass, Large plant response rating / Plant response rating, Crabgrass, Large: 0 to 100 scale where 0 is no effect and 100 is complete control
Summary of the method: as §1

barnyardgrass [16] = assay: Test A preemergence; format: in vivo, Echinochloa crus-galli; conditions: for Barnyardgrass plant response rating: 500 g ai/ha; for Barnyardgrass plant response rating / Plant response rating, Barnyardgrass: 0 to 100 scale where 0 is no effect and 100 is complete control
Summary of the method: as §1

giant foxtail [17] = assay: Test A postemergence; format: in vivo, Setaria faberii
Summary of the method: as §1

[18] = 125 g ai/ha, 0 to 100 scale, 0 no effect, 100 complete control
[19] = 500 g ai/ha, 0 to 100 scale where 0 is no effect and 100 is complete control
[20] = 125 g ai/ha, 0 to 100 scale where 0 is no effect and 100 is complete control

| SMILES | Foxtail, Giant plant response rating (giant foxtail [1]) | Wheat plant response rating (0 to 100 scale) (wheat [2]) | Wheat plant response rating (wheat [2]) | Plant response rating, Rice (rice) | Morningglory plant response rating (0 to 100 scale) (morningglory [3]) | Morningglory plant response rating (morningglory [3]) | Pigweed plant response rating (0 to 100 scale) (pigweed [4]) | Pigweed plant response rating (pigweed [4]) | Plant response rating, Barnyardgrass (barnyardgrass [5]) | Plant response rating, Pigweed (pigweed [6]; [19]) | Plant response rating, Ducksalad (Heteranthera limosa) | Plant response rating, Velvetleaf (velvetleaf [7]; [19]) | Plant response rating, Corn (corn [8]; [19]) | Plant response rating, Barnyardgrass (barnyardgrass [9]; [19]) | Plant response rating, Wheat (wheat [10]; [19]) | Corn plant response rating (corn [11]) | Velvetleaf plant response rating (0 to 100 scale) (velvetleaf [12]) | Velvetleaf plant response rating (velvetleaf [12]) | Plant response rating, Crabgrass, Large (large (Lg) crabgrass [13]; [19]) | Plant response rating, Morningglory (morningglory [14]; [19]) | also measured |
| --- | --- | --- | --- | --- | --- | --- | --- | --- | --- | --- | --- | --- | --- | --- | --- | --- | --- | --- | --- | --- | --- |
| Clc1cnc(Oc2cccc(-c3cccnc3)c2-n2cc(Br)cn2)nc1 [Compound 290] | 10 | 0 | 0 | 0 | 0 | 0 | 0 | 0 | 0 | 20 | 0 | 30 | 10 | 0 | 0 | 0 | 0 | 0 | 10 | 10 | Foxtail, Giant plant response rating (0 to 100 scale) (giant foxtail [1]; 125 g ai/ha): 0; Plant response rating, Pigweed (pigweed [6]; [18]): 10; Plant response rating, Velvetleaf (velvetleaf [7]; [18]): 10; Plant response rating, Corn (corn [8]; [18]): 0; Plant response rating, Barnyardgrass (barnyardgrass [9]; [18]): 0; Plant response rating, Wheat (wheat [10]; [18]): 0; Corn plant response rating (0 to 100 scale) (corn [11]; 125 g ai/ha): 0; Plant response rating, Crabgrass, Large (large (Lg) crabgrass [13]; [18]): 0; Plant response rating, Morningglory (morningglory [14]; [18]): 0; Plant response rating, Sedge, Umbrella (sedge, umbrella): 0; Crabgrass, Large plant response rating (0 to 100 scale) (large (Lg) crabgrass [15]; 125 g ai/ha): 0; Crabgrass, Large plant response rating (large (Lg) crabgrass [15]): 10; Barnyardgrass plant response rating (0 to 100 scale, 0 is no effect, 100 is complete control) (barnyardgrass [16]; 125 g ai/ha): 0; Barnyardgrass plant response rating (barnyardgrass [16]): 0; Plant response rating, Foxtail, Giant (giant foxtail [17]; [18]): 0; Plant response rating, Foxtail, Giant (giant foxtail [17]; [19]): 10 |
| N#Cc1cnc(Oc2cccc(C(F)F)c2-n2cc(Br)cn2)nc1 [Compound 175] | 0 | 0 | 0 | 0 | 0 | 0 | 0 | 0 | 0 | 0 | 0 | 0 | 0 | 0 | 0 | 0 | 0 | 0 | 0 | 0 | Plant response rating, Foxtail, Giant (giant foxtail [1]; 125 g ai/ha): 0; Pigweed plant response rating (pigweed [6]; [20]): 0; Velvetleaf plant response rating (velvetleaf [7]; [20]): 0; Corn plant response rating (corn [8]; [20]): 0; Barnyardgrass plant response rating (barnyardgrass [9]; [20]): 0; Wheat plant response rating (wheat [10]; [20]): 0; Plant response rating, Corn (corn [11]; 125 g ai/ha): 0; Crabgrass, Large plant response rating (large (Lg) crabgrass [13]; [20]): 0; Morningglory plant response rating (morningglory [14]; [20]): 0; Plant response rating, Sedge, Umbrella (sedge, umbrella): 0; Plant response rating, Crabgrass, Large (large (Lg) crabgrass [15]; 125 g ai/ha): 0; Crabgrass, Large plant response rating (large (Lg) crabgrass [15]): 0; Plant response rating, Barnyardgrass (barnyardgrass [16]; 125 g ai/ha): 0; Barnyardgrass plant response rating (barnyardgrass [16]): 0; Foxtail, Giant plant response rating (giant foxtail [17]; [20]): 0; Plant response rating, Foxtail, Giant (giant foxtail [17]; [19]): 0 |
| FC(F)c1cccc(Oc2ncc(I)cn2)c1-n1cc(Br)cn1 [Compound 173] | 70 | 0 | 0 | 0 | 0 | 0 | 80 | 100 | 0 | 100 | 0 | 70 | 20 | 30 | 0 | 0 | 0 | 0 | 40 | 0 | Plant response rating, Foxtail, Giant (giant foxtail [1]; 125 g ai/ha): 50; Pigweed plant response rating (pigweed [6]; [20]): 100; Velvetleaf plant response rating (velvetleaf [7]; [20]): 60; Corn plant response rating (corn [8]; [20]): 0; Barnyardgrass plant response rating (barnyardgrass [9]; [20]): 0; Wheat plant response rating (wheat [10]; [20]): 0; Plant response rating, Corn (corn [11]; 125 g ai/ha): 0; Crabgrass, Large plant response rating (large (Lg) crabgrass [13]; [20]): 0; Morningglory plant response rating (morningglory [14]; [20]): 0; Plant response rating, Sedge, Umbrella (sedge, umbrella): 0; Plant response rating, Crabgrass, Large (large (Lg) crabgrass [15]; 125 g ai/ha): 20; Crabgrass, Large plant response rating (large (Lg) crabgrass [15]): 80; Plant response rating, Barnyardgrass (barnyardgrass [16]; 125 g ai/ha): 0; Barnyardgrass plant response rating (barnyardgrass [16]): 30; Foxtail, Giant plant response rating (giant foxtail [17]; [20]): 10; Plant response rating, Foxtail, Giant (giant foxtail [17]; [19]): 50 |
